# Reference: patent US20040242870A1, “Antiviral methods and compounds” (priority 2000, published 2004)
# B1: FAS: positive control (kit and Fas ligand) of the apoptosis procedure (protein, UniProt P48023 130-281, looked up)
# Tumor necrosis factor ligand …: QIGHPSPPPEKKELRKVAHLTGKSNSRSMPLEWEDTYGIVLLSGVKYKKGGLVINETGLYFVYSKVYFRGQSCNNLPLSHKVYMRNSKYPQDLVMMEGKMMSYCTTGQMWARSSYLGAVFNLTSADHLYVNVSELSLVNFEESQTFFGLYKL
# What was measured:
# PBMCs [1] = assay: PBMC apoptosis by flow cytometry (APO-BRDU kit); type: cell-based, Human
# Description: Flow cytometry studies were carried out on PHA/IL-2 induced PBMCs treated for 6 days with the various test compounds. Prior to flow cytometry the PBMCs were washed, counted and 1×10^6 cells resuspended in PBS and stained for CD4 or CD8 surface markers using anti-CD4.PE or CD8.PE (both from PharMingen) for 30 min at 4° C. The PBMC were then washed, fixed (Cytofix) and permeabilized (Cytoperm) followed by staining for apoptosis-related DNA damage. Initial experiments used the BrdU Flow Kit from PharMigen (2354KK). […] For both kits, manufacturers instructions were followed for staining and analysis of the samples. Following the appropriate staining protocol the cells were analyzed using a Becton Dickinson (Bedford, Mass.) FACSSort
# In another series of experiments, the IG compounds and cannabidiol treated cells were assessed for the induction of apoptosis (see Tables 8 and 9). […] As IL-2 is an essential component for maintaining the health of PHA induced PBMCs, a second focus of these studies focuses on the effect of the compounds in the absence of IL-2.
# PBMCs [2] = assay: PBMC cytotoxicity in time-of-addition assay; type: cell-based, Human
# Excerpt: (§1) Human peripheral blood mononuclear cells from a minimum of 2 donors, that have been blasted with PHA and IL-2, were counted, viability determined by Trypan Blue dye exclusion and mixed in equal ratios. Pooled donors were used to minimize the variability observed between individual donors which results from quantitative and qualitative differences in HIV infection and overall response to the PHA and IL-2 of primary lymphocyte populations. The cells were resuspended at 1×10^6 cells/mL in RPMI 1640 without phenol red supplemented with 15% Fetal Bovine Serum (heat inactivated), 2 mM L-glutamine, 100 U/mL penicillin, 100 μg/mL streptomycin, 10 μg/Ln gentamycin and IL-2 (20 U/mL, R&D Systems, Minneapolis, Minn.). Fifty microliters of cells were then distributed to the inner 60 wells of a 96 well round bottom microtiter culture plate in a standard format developed by the Infectious Disease Research department of Southern Research Institute. Each plate contains cell control wells (cells only), virus control wells (cells plus virus), and experimental wells (drug plus cells plus virus). Alternatively, cells were cultured in T25 cm^2 or T75 cm^2 tissue culture flasks at a starting density of 1×10^6 cells per ml. Serially diluted compounds were added to the microtiter plate or tissue culture flask followed by the appropriate pre-titered strain of HIV-1. For virus replication inhibition experiments the HIV-1 strain RoJo was used. This is a low passage presumable subtype B pediatric isolate with a syncytium inducing (SI) phenotype in MT-2 cells isolated by Southern Research Institute personnel. All samples were assayed in triplicate where possible with an accompanying determination of compound toxicity. The final volume per well in the microtiter plates was 200 μL. The final volume in the tissue culture flask varied depending upon experimental design and flask size. Assays were incubated for 6 days in a humidified atmosphere at 37° C., 5% CO2, after which supernatants were collected, for analysis of RT activity and cell viability by MTS dye reduction. Culture were also examined microscopically, any abnormalities noted, and in the case of tissue culture flasks cell counts and viability determined by Trypan Blue Dye exclusion.
# Time-of-addition assays were performed with PBMCs in two ways. For both assays, PBMCs were isolated and cultured under the conditions as described above. Time-of-addition assays were carried out in either a tissue culture flask format (T-75 cm^2) or in microtiter wells. In both cases due to the lack of plastic adherence and heterogeneity of the PBMC population for susceptibility to infection, it was not possible to use complete removal of virus following a timed adsorption to synchronize the infection and limit the assay to a single round of infection. Therefore, serial washing by partial removal of the media was used to reduce the concentration of virus and compound (if required) in the assay. Compound addition in relationship to antiviral activity was either assessed over a short addition interval immediately before or after virus addition or for up to 72 h post infection. For all assays virus replication was assessed at 6 days of culture by determining RT expression in cell-free supernatants. In the tissue culture flask format cells were counted and Trypan Blue Dye exclusion used to monitor compound cytotoxicity. Cell viability in the 96 well microtiter plate format was determined by MTS dye reduction. AZT was used as a positive control.
# At assay termination the assay plates were stained with the soluble tetrazolium-based dye MTS (CellTiter96® Reagent Promega) to determine cell viability and quantify compound toxicity. MTS is metabolized by the mitochondria enzymes of metabolically active cells to a soluble formazan product, allowing the rapid quantitative analysis cell viability and compound cytotoxicity. […] At termination of the assay 20 μL of MTS reagent was added per well and incubated for 4 h at 37° C. […]
# HIV-1 strain RoJo = assay: PBMC time-of-addition assay (RT in cell-free supernatant at 6 days); type: cell-based
# Description: Peripheral blood monocular cells (PBMCs) were obtained from normal hepatitis and HIV-1 negative donors by ficoll hypaque gradient separation. The mononuclear cells were washed to remove residual separation media, counted, viability determined and resuspended in RPMI 1640 medium supplemented with 15 % FBS (heat inactivated), 2 mM L-glutamine, 100 U/mL penicillin, 100 μg/mL streptomycin, and 10 μg/mL gentamycin with 2 μg/mL phytohemagluttin (PHA) at 1×10^6 cells/mL. The cells were cultured for 48 to 72 h at 37° C., 5% CO2. Following incubation, cells were collected by centrifugation, washed and resuspended in RPMI 1640 supplemented with 15% FBS (heat inactivated), 2 mM L-glutamine, 100 U/mL penicillin, 100 μg/mL streptomycin, and 10 μg/mL gentamycin with 20 U/mL recombinant IL-2 (R & D Systems, Minneapolis, Minn.). IL-2 was included in the culture medium to maintain the cell division initiated by the PHA mitogenic stimulation, and promote optimal growing conditions for the PBMCs. The cultures were then maintained until use by ½ culture volume change with fresh IL-2 containing medium every 3 days.
# as §1
# Time-of-addition assays were performed with PBMCs in two ways. For both assays, PBMCs were isolated and cultured under the conditions as described above. Time-of-addition assays were carried out in either a tissue culture flask format (T-75 cm^2) or in microtiter wells. In both cases due to the lack of plastic adherence and heterogeneity of the PBMC population for susceptibility to infection, it was not possible to use complete removal of virus following a timed adsorption to synchronize the infection and limit the assay to a single round of infection. […]
# HeLa CD4 LTR β-gal cells = assay: Compound toxicity in attachment assay (MTS dye reduction, sister plates); type: cell-based
# Description: At assay termination the assay plates were stained with the soluble tetrazolium-based dye MTS (CellTiter96® Reagent Promega) to determine cell viability and quantify compound toxicity. MTS is metabolized by the mitochondria enzymes of metabolically active cells to a soluble formazan product, allowing the rapid quantitative analysis cell viability and compound cytotoxicity. […] At termination of the assay 20 μL of MTS reagent was added per well and incubated for 4 h at 37° C. Adhesive plate sealers were used in place of the lids, the sealed plate was inverted several times to mix the soluble formazan product and the plate was read spectrophotometrically at 490 nm with a Molecular Devices Vmax plate reader.
# (§2) The attachment assay was performed with the HeLa CD4 LTR , β-gal cells available from the AIDS Research and Reference Reagent Repository. […] HeLa CD4 LTR β-gal cells express cell surface CD4 and contain an LTR β-galactosidase reporter construct. Upon infection either the Tat protein incorporated into the virion or new Tat produced following virus integration and transcription trans-activates the LTR β-gal reporter, leading to expression of the β-galactosidase enzyme. HeLa CD4 LTR β-gal cells are routinely cultured with the required selection antibiotics and screened for mycoplasma contamination. Twenty-four h prior to initiation of the assay cells were trypsinized, counted and 1×10^4 cells placed in a 0.2 cm well in media without selection antibiotics. Media was removed at 24 h and compound in media placed on the cells and incubated for 15 to 30 min at 37° C. A known titer of virus was then added to the wells and the incubation continued for 1 h. At the end of the incubation the wells were washed 6 times with media and the culture continued for 48 h. At 48 h the wells were washed one time with PBS and β-galactosidase enzyme expression determined by chemiluminescence per manufacturers instructions (Tropix Gal-screen™, Tropix, Bedford, Mass.). Compound toxicity was monitored on sister plates using MTS dye reduction.
# HIV-1 [3] = assay: HeLa CD4 LTR β-gal HIV-1 attachment assay; type: cell-based; settings: Human immunodeficiency virus 1, HeLa, read-out: IC50
# Description: as §2, with “Media was removed at 24 h and compound in media placed on the cells and incubated for 15 to 30 min at 37° C.” left out
# HIV-1 [4] = assay: HeLa CD4 LTR β-gal/HL2/3 HIV-1 fusion assay; type: cell-based; settings: Human immunodeficiency virus 1, HL2/3, read-out: Antiviral Activity IC50
# Excerpt: This assay uses the HeLa CD4 LTR β-gal and HL2-3 cells available from the AIDS Research and Reference Reagent Repository. The HL2/3 are derived from HeLa cells and engineered to express HIV gp120 on their cell surface and Tat protein in their cytoplasma. Thus following gp 120/CD4/coreceptor-mediated fusion; cytoplasmic mixing results in the HL2/3 cell-derived Tat trans-activation of the β-galactosidase reporter. […] Twenty-four h prior to initiation of the assay cells were trypsinized, counted and 5×10^3 cells placed in a 0.2 cm well in media without selection antibiotics. To initiate the fusion assay HeLa CD4 LTR β-gal (5×10^3 cells per 0.2 cm well) were incubated with compound for 1 h at 37° C. HL2/3 cells (5×10^3) were added to the 0.2 cm well and the incubation continued for 48 h. At 48 h the wells were washed 1 time with PBS and β-galactosidase enzyme expression determined by chemiluminescence per manufacturers instructions (Tropix Gal-screen™, Tropix, Bedford, Mass.). Compound toxicity was monitored on sister plates using MTS dye reduction.
# [5] = IL-2 supplemented media, 1 μM, HIV +
# [6] = IL-2 supplemented media, 1 μM, HIV −
molecule,measurement,setting,value
"Cc1cn([C@H]2C[C@H](N=[N+]=[N-])[C@@H](CO)O2)c(=O)[nH]c1=O [AZT, reference compound]",% Apoptosis,"PBMCs [1]; IL-2 deficient media, 1 μM, HIV +",13.7%
same,% Apoptosis,"PBMCs [1]; IL-2 deficient media, 1 μM, HIV −",15.1%
same,% Apoptosis,PBMCs [1]; [5],13.3%
same,Fold Change,PBMCs [1]; [5],0.8
same,% Apoptosis,PBMCs [1]; [6],15.0%
same,Fold Change,PBMCs [1]; [6],1.3
same,TC50,PBMCs [2]; 6 h post infection,>4000 nM
same,TC50,PBMCs [2]; at infection,>4000 nM
same,TC50,PBMCs [2]; −4 h pre (relative to infection),>4000 nM
same,enhancement of activity,HIV-1 strain RoJo; 4 h preincubation,4.6 fold
same,IC50,HIV-1 strain RoJo; pre-treat 0 h prior to infection,1.3 nM
same,IC50,HIV-1 strain RoJo; pre-treat 2 h prior to infection,1.1 nM
same,IC50,HIV-1 strain RoJo; pre-treat 4 h prior to infection,1.1 nM
same,IC50,HIV-1 strain RoJo; pre-treat 24 h prior to infection,3.1 nM
"COc1cc(-c2ccc(/N=N/c3ccc4c(S(=O)(=O)O)cc(S(=O)(=O)O)c(N)c4c3O)c(OC)c2)ccc1/N=N/c1ccc2c(S(=O)(=O)O)cc(S(=O)(=O)O)c(N)c2c1O [CSB, Chicago Sky Blue, reference compound]",TC50,"HeLa CD4 LTR β-gal cells; Experiment 1, pretreat 0 h",>10 µg/mL
same,TC50,"HeLa CD4 LTR β-gal cells; Experiment 1, pretreat 4 h",>10 µg/mL
same,TC50,"HeLa CD4 LTR β-gal cells; Experiment 1, pretreat 24 h",>10 µg/mL
same,TC50,"HeLa CD4 LTR β-gal cells; Experiment 2, pretreat 0 h",>10 µg/mL
same,TC50,"HeLa CD4 LTR β-gal cells; Experiment 2, pretreat 4 h",>10 µg/mL
same,TC50,"HeLa CD4 LTR β-gal cells; Experiment 2, pretreat 24 h",>10 µg/mL
same,IC50,"HIV-1 [3]; Experiment 1, pretreat 0 h",1.1 µg/mL
same,IC50,"HIV-1 [3]; Experiment 1, pretreat 4 h",1.71 µg/mL
same,IC50,"HIV-1 [3]; Experiment 1, pretreat 24 h",1.3 µg/mL
same,IC50,"HIV-1 [3]; Experiment 2, pretreat 0 h",0.17 µg/mL
same,IC50,"HIV-1 [3]; Experiment 2, pretreat 4 h",2.11 µg/mL
same,IC50,"HIV-1 [3]; Experiment 2, pretreat 24 h",4.7 µg/mL
same,IC50,HIV-1 [4],1.75 µg/mL
B1,% Apoptosis,"PBMCs [1]; IL-2 deficient media, HIV +, positive control, concentration not given",16.2%
same,% Apoptosis,"PBMCs [1]; IL-2 deficient media, HIV −, positive control, concentration not given",13.7%
same,% Apoptosis,"PBMCs [1]; IL-2 supplemented media, HIV +, positive control, concentration not given",17.3%
same,% Apoptosis,"PBMCs [1]; IL-2 supplemented media, HIV −, positive control, concentration not given",17.8%
